Key:
[1] = molecular target: Serine/threonine-protein kinase pim-1 (Homo sapiens) (UniProt P11309); conditions: Compound concentration 1000.0 nM
[2] = molecular target: 5-hydroxytryptamine receptor 2C (Homo sapiens) (UniProt P28335); conditions: Compound concentration 10.0 uM
[3] = molecular target: Serine/threonine-protein kinase TNNI3K (Homo sapiens) (UniProt Q59H18); conditions: Compound concentration 1000.0 nM
[4] = molecular target: STE20/SPS1-related proline-alanine-rich protein kinase (Homo sapiens) (UniProt Q9UEW8); conditions: Compound concentration 1000.0 nM
[5] = tested on: Epidermal growth factor receptor (Homo sapiens), P00533 [UNDEFINED MUTATION]; conditions: Compound concentration 1000.0 nM
Chain of Epidermal growth factor receptor (Homo sapiens), P00533 [UNDEFINED MUTATION] (P00533 whole entry, looked up, stated change not applied): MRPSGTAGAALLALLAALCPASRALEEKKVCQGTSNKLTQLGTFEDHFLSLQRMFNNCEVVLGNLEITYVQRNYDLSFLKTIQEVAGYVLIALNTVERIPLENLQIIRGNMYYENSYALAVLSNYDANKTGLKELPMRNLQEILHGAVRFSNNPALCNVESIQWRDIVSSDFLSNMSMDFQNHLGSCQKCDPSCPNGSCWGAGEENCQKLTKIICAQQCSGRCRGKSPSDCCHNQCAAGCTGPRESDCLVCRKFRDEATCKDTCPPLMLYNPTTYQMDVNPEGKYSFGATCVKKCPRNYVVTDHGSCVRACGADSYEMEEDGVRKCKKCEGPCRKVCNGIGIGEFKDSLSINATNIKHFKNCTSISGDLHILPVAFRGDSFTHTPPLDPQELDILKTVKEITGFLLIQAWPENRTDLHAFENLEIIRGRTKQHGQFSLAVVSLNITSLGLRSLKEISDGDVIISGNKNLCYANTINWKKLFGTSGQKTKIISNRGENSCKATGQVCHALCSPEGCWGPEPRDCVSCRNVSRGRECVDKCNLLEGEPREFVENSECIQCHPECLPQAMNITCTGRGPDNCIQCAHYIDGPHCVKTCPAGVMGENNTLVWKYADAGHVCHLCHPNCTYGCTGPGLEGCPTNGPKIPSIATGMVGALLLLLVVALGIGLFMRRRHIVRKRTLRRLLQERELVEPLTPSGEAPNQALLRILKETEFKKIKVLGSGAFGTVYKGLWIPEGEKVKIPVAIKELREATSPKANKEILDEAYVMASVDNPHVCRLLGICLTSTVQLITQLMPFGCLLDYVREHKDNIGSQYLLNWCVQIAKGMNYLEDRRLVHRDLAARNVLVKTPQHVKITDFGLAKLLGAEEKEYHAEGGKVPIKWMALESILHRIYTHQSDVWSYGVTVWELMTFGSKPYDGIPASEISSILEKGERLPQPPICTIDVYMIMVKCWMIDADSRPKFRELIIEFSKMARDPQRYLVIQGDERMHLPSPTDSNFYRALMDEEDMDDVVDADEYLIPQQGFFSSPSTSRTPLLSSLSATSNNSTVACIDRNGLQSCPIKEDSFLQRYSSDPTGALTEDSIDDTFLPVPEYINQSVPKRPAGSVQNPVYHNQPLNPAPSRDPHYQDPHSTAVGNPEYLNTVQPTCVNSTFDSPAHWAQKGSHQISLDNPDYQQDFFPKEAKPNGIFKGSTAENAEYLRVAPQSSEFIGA

[6] = tested on: Tyrosine-protein kinase ABL1 (Homo sapiens), P00519 [F317I]; conditions: Compound concentration 1000.0 nM
[7] = molecular target: Mitogen-activated protein kinase kinase kinase kinase 2 (Homo sapiens) (UniProt Q12851); conditions: Compound concentration 1000.0 nM
[8] = molecular target: Mitogen-activated protein kinase kinase kinase 6 (Homo sapiens) (UniProt O95382); conditions: Compound concentration 1000.0 nM
[9] = molecular target: Serine/threonine-protein kinase ULK3 (Homo sapiens) (UniProt Q6PHR2); conditions: Compound concentration 1000.0 nM
[10] = molecular target: 5-hydroxytryptamine receptor 2B (Homo sapiens) (UniProt P41595); conditions: Compound concentration 10.0 uM
[11] = molecular target: Serine/threonine-protein kinase Nek6 (Homo sapiens) (UniProt Q9HC98); conditions: Compound concentration 1000.0 nM
[12] = molecular target: Mitogen-activated protein kinase 13 (Homo sapiens) (UniProt O15264); conditions: Compound concentration 1000.0 nM
Chain of Mitogen-activated protein kinase 13 (Homo sapiens) (O15264 whole entry): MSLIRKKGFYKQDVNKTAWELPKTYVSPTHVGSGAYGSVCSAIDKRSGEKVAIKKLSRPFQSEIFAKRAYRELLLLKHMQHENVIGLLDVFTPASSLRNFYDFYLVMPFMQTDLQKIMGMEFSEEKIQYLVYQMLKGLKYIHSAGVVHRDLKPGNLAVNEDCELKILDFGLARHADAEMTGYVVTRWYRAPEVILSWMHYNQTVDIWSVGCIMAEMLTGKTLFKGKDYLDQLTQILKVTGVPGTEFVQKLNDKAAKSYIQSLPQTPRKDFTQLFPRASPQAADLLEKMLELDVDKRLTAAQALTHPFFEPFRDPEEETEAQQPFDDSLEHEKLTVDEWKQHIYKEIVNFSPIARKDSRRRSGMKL

[13] = molecular target: Serine/threonine-protein kinase/endoribonuclease IRE1 (Homo sapiens) (UniProt O75460); conditions: Compound concentration 1000.0 nM
Chain of Serine/threonine-protein kinase/endoribonuclease IRE1 (Homo sapiens) (O75460 19-977 limits assumed): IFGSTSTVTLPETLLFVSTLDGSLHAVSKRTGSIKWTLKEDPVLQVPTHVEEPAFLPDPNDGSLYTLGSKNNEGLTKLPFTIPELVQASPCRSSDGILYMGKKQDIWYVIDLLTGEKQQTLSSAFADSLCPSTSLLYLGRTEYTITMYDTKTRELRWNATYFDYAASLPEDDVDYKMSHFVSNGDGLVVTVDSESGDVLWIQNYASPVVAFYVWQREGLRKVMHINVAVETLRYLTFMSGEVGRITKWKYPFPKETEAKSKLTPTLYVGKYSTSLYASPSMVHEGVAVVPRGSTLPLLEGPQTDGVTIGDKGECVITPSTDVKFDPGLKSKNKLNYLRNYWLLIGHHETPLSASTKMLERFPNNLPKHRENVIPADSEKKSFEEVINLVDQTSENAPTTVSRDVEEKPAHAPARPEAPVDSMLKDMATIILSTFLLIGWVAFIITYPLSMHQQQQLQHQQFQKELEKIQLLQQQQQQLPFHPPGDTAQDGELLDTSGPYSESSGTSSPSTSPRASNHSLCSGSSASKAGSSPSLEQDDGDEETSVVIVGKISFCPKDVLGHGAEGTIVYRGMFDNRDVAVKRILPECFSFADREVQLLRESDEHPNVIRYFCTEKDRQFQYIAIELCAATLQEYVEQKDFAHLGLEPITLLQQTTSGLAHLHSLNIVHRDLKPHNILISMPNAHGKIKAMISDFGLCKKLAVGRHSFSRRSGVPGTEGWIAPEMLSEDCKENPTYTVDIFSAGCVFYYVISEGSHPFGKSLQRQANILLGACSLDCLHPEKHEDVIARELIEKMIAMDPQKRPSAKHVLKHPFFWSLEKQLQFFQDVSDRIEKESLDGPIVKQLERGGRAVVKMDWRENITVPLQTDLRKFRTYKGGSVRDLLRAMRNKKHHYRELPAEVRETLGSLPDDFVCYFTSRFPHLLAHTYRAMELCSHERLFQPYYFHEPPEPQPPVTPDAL

[14] = tested on: Receptor-type tyrosine-protein kinase FLT3 (Homo sapiens), P36888 [K663Q]; conditions: Compound concentration 1000.0 nM
Rattus norvegicus = species on record: Rattus norvegicus; conditions: Compound concentration 10.0 uM
[15] = molecular target: Transient receptor potential cation channel subfamily M member 6 (Homo sapiens) (UniProt Q9BX84); conditions: Compound concentration 1000.0 nM
[16] = molecular target: Tyrosine-protein kinase Fer (Homo sapiens) (UniProt P16591); conditions: Compound concentration 1000.0 nM
[17] = tested on: Tyrosine-protein kinase ABL1 (Homo sapiens), P00519 [T315I]; conditions: Compound concentration 1000.0 nM
[18] = molecular target: Calcium/calmodulin-dependent protein kinase type II subunit beta (Homo sapiens) (UniProt Q13554); conditions: Compound concentration 1000.0 nM
Chain of Calcium/calmodulin-dependent protein kinase type II subunit beta (Homo sapiens) (Q13554 whole entry): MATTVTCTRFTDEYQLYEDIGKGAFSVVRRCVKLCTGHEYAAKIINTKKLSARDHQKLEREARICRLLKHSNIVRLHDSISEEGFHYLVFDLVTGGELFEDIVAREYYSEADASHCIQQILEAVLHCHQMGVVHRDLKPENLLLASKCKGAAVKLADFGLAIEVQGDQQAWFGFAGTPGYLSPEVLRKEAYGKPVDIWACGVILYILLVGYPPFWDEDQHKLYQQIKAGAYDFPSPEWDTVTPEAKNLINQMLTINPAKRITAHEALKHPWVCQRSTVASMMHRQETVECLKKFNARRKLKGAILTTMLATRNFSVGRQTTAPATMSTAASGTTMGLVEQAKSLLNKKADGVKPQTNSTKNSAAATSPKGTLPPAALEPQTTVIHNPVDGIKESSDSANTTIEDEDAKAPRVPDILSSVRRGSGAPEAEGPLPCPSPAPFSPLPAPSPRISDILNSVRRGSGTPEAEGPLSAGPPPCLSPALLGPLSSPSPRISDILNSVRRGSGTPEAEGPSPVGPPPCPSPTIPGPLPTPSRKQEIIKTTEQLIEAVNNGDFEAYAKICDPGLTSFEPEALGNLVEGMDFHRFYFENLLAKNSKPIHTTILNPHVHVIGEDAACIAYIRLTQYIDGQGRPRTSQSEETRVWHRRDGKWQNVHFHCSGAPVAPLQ

[19] = molecular target: Cyclin-G-associated kinase (Homo sapiens) (UniProt O14976); conditions: Compound concentration 1000.0 nM
[20] = molecular target: cAMP-dependent protein kinase catalytic subunit alpha (Homo sapiens) (UniProt P17612); conditions: Compound concentration 1000.0 nM
[21] = tested on: Receptor-type tyrosine-protein kinase FLT3 (Homo sapiens), P36888 [UNDEFINED MUTATION]; conditions: Compound concentration 1000.0 nM
[22] = molecular target: Wee1-like protein kinase 2 (Homo sapiens) (UniProt P0C1S8); conditions: Compound concentration 1000.0 nM
[23] = molecular target: Tyrosine-protein kinase ABL2 (Homo sapiens) (UniProt P42684); conditions: Compound concentration 1000.0 nM
[24] = molecular target: Phosphatidylinositol 4-phosphate 5-kinase type-1 gamma (Homo sapiens) (UniProt O60331); conditions: Compound concentration 1000.0 nM
Chain of Phosphatidylinositol 4-phosphate 5-kinase type-1 gamma (Homo sapiens) (O60331 whole entry): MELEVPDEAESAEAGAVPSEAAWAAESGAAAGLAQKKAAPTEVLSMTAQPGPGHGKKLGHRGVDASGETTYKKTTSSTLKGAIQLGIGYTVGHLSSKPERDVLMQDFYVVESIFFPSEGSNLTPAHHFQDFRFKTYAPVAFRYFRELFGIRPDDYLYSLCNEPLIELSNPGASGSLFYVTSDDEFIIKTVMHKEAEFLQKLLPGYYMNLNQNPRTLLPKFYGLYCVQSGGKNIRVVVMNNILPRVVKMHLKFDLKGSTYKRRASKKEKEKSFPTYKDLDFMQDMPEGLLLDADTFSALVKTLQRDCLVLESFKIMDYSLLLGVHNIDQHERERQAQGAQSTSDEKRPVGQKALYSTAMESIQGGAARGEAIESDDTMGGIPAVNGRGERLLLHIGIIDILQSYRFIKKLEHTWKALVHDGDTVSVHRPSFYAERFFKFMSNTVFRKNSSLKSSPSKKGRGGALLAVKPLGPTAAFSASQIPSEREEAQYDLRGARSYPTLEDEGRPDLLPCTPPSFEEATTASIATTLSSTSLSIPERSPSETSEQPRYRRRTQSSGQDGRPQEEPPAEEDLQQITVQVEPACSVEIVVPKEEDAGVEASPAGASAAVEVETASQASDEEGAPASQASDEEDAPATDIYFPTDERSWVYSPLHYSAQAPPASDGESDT

[25] = molecular target: Calcium/calmodulin-dependent protein kinase type 1G (Homo sapiens) (UniProt Q96NX5); conditions: Compound concentration 1000.0 nM
[26] = molecular target: Mitogen-activated protein kinase 4 (Homo sapiens) (UniProt P31152); conditions: Compound concentration 1000.0 nM
[27] = molecular target: Mitogen-activated protein kinase kinase kinase kinase 4 (Homo sapiens) (UniProt O95819); conditions: Compound concentration 1000.0 nM
[28] = molecular target: Aurora kinase A (Homo sapiens) (UniProt O14965); conditions: Compound concentration 1000.0 nM
[29] = molecular target: Kappa-type opioid receptor (Homo sapiens) (UniProt P41145); conditions: Compound concentration 10.0 uM
[30] = molecular target: Receptor-type tyrosine-protein kinase FLT3 (Homo sapiens) (UniProt P36888); conditions: Compound concentration 1000.0 nM
[31] = tested on: Mast/stem cell growth factor receptor Kit (Homo sapiens), P10721 [L576P]; conditions: Compound concentration 1000.0 nM
[32] = molecular target: Serine/threonine-protein kinase SBK1 (Homo sapiens) (UniProt Q52WX2); conditions: Compound concentration 1000.0 nM
[33] = molecular target: Beta-adrenergic receptor kinase 1 (Homo sapiens) (UniProt P25098); conditions: Compound concentration 1000.0 nM
Chain of Beta-adrenergic receptor kinase 1 (Homo sapiens) (P25098 whole entry): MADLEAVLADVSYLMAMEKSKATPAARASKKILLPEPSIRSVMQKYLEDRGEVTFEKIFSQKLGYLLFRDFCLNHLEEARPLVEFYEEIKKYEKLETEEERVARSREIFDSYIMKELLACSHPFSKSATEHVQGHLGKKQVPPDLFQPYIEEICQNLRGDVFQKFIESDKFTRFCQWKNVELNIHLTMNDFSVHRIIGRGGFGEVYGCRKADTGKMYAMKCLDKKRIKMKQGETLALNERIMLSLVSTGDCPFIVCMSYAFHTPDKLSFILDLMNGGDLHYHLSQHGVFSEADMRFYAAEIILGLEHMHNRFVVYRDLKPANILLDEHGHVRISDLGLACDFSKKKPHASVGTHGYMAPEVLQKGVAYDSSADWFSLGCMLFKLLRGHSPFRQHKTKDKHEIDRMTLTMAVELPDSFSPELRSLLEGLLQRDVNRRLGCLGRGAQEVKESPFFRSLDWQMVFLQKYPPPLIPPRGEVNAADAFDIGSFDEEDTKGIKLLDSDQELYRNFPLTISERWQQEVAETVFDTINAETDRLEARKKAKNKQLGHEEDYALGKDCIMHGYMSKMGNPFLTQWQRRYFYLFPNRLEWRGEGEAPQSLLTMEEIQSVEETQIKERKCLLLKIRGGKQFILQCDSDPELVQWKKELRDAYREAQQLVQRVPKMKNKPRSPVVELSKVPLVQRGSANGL

[34] = molecular target: Aurora kinase C (Homo sapiens) (UniProt Q9UQB9); conditions: Compound concentration 1000.0 nM
[35] = molecular target: Microtubule-associated serine/threonine-protein kinase 1 (Homo sapiens) (UniProt Q9Y2H9); conditions: Compound concentration 1000.0 nM
[36] = tested on: Tyrosine-protein kinase ABL1 (Homo sapiens), P00519 [F317I]; conditions: Compound concentration 1000.0 nM; remark: listed apart in the source
[37] = molecular target: Maternal embryonic leucine zipper kinase (Homo sapiens) (UniProt Q14680); conditions: Compound concentration 1000.0 nM
[38] = molecular target: Protein-tyrosine kinase 2-beta (Homo sapiens) (UniProt Q14289); conditions: Compound concentration 1000.0 nM
[39] = molecular target: Mitogen-activated protein kinase 10 (Homo sapiens) (UniProt P53779); conditions: Compound concentration 1000.0 nM
[40] = molecular target: Serine/threonine-protein kinase ULK2 (Homo sapiens) (UniProt Q8IYT8); conditions: Compound concentration 1000.0 nM
[41] = molecular target: 5'-AMP-activated protein kinase catalytic subunit alpha-1 (Homo sapiens) (UniProt Q13131); conditions: Compound concentration 1000.0 nM
[42] = molecular target: Receptor tyrosine-protein kinase erbB-2 (Homo sapiens) (UniProt P04626); conditions: Compound concentration 1000.0 nM
[43] = molecular target: Death-associated protein kinase 1 (Homo sapiens) (UniProt P53355); conditions: Compound concentration 1000.0 nM
[44] = molecular target: Fibroblast growth factor receptor 1 (Homo sapiens) (UniProt P11362); conditions: Compound concentration 1000.0 nM

Chain of Serine/threonine-protein kinase pim-1 (Homo sapiens) (P11309 whole entry, looked up): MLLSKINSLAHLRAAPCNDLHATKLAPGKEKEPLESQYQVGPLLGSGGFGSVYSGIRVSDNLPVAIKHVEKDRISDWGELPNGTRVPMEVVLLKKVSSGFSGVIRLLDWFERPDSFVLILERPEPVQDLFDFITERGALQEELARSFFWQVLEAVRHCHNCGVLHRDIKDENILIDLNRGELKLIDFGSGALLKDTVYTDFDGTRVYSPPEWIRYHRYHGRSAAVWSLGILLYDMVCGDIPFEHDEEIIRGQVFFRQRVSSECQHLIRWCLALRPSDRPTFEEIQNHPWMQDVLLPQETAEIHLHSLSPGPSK

O=c1nc(-c2ccccn2)sc2ccccc12 [BTZO-1]
inactive: residual activity [1] 85% | inhibition [2] 12.2% | residual activity [3] 87% | residual activity [4] 100% | residual activity [5] 100% | residual activity [6] 100% | residual activity [7] 100% | residual activity [8] 71% | residual activity [9] 100% | inhibition [10] 34.3% | residual activity [11] 100% | residual activity [12] 99% | residual activity [13] 100% | residual activity [14] 100% | inhibition (Rattus norvegicus) 9.91% | residual activity [15] 77% | residual activity [16] 94% | residual activity [17] 100% | residual activity [18] 100% | residual activity [19] 97% | residual activity [20] 91% | residual activity [21] 81% | residual activity [22] 100% | residual activity [23] 87% | residual activity [24] 84% | residual activity [25] 100% | residual activity [26] 100% | residual activity [27] 100% | residual activity [28] 87% | inhibition [29] 1.65% | residual activity [30] 93% | residual activity [31] 86% | residual activity [32] 100% | residual activity [33] 65% | residual activity [34] 97% | residual activity [35] 73% | residual activity [36] 91% | residual activity [37] 82% | residual activity [38] 100% | residual activity [39] 100% | residual activity [40] 100% | residual activity [41] 100% | residual activity [42] 65% | residual activity [43] 100% | residual activity [44] 100%

O=C1NC(c2ccccn2)Sc2ccccc21 (stereo not given) [BTZO-4]
inactive: residual activity [1] 82% | inhibition [2] 3.98% | residual activity [3] 87% | residual activity [4] 89% | residual activity [5] 100% | residual activity [6] 90% | residual activity [7] 83% | residual activity [8] 65% | residual activity [9] 100% | inhibition [10] -5.37% | residual activity [11] 84% | residual activity [12] 100% | residual activity [13] 100% | residual activity [14] 82% | inhibition (Rattus norvegicus) 22.6% | residual activity [15] 64% | residual activity [16] 84% | residual activity [17] 100% | residual activity [18] 100% | residual activity [19] 100% | residual activity [20] 81% | residual activity [21] 83% | residual activity [22] 85% | residual activity [23] 85% | residual activity [24] 77% | residual activity [25] 100% | residual activity [26] 86% | residual activity [27] 100% | residual activity [28] 93% | inhibition [29] 4.68% | residual activity [30] 77% | residual activity [31] 89% | residual activity [32] 100% | residual activity [33] 58% | residual activity [34] 90% | residual activity [35] 91% | residual activity [36] 88% | residual activity [37] 81% | residual activity [38] 76% | residual activity [39] 100% | residual activity [40] 76% | residual activity [41] 100% | residual activity [42] 71% | residual activity [43] 100% | residual activity [44] 85%
